Assay results as given in patent US6506607B1, “Methods and compositions for the identification and assessment of prostate cancer therapies and the diagnosis of prostate cancer” (Millennium Pharmaceuticals, Inc., priority 1997, dated 2003).

Test system: LNCaP cells
Method: After 25 hours of incubation in testosterone-containing medium, the cells were detached from the flasks with trypsin and pelleted. Five T162 flasks of pretreated cells were used as a control. Untreated cells were collected in the same manner.
Total RNA was prepared from the cell pellets using the RNeasy protocol (Qiagen).
The PCR products representing partial cDNAs of putatively differentially expressed mRNAs were subcloned into pCR2.1 (InVitrogen) and transformed into INValphaF^1 cells.
The differentially expressed genes were then identified by screening on a Gene Expression Micro-Array™ (Synteni, Inc.; Fremont, Calif.).
In some cases only a partial sequence is presented in the corresponding figure. The various methods described herein can employ complete sequences or fragments thereof.

In the case of C[C@]12CC[C@H]3[C@@H](CCC4=CC(=O)CC[C@@]43C)[C@@H]1CC[C@@H]2O [testosterone], the “Fold Increase In mRNA: 54 kDa progesterone receptor-associated immunophilin FKBP54” value is reported as 2.5, the “Fold Increase In mRNA: Ankyrin G (ANK-3) (U13616)” value is reported as 2.7 and the “Fold Increase In mRNA: Aryl hydrocarbon receptor nuclear translocator” value is reported as 4.6. For the same compound, the “Fold Increase In mRNA: BM28 mRNA/DNA replication licensing factor (huMCM2)” value was 2.4, the “Fold Increase In mRNA: Cell division protein kinase 6” value was 3.1 and the “Fold Increase In mRNA: Cytochrome b5” value was 3.3. The “Fold Increase In mRNA: ESTs {23605}” value was 2.5, the “Fold Increase In mRNA: ESTs {26259}” value was 5 and the “Fold Increase In mRNA: ESTs {32161}” value was 2.5. For the same compound, the “Fold Increase In mRNA: ESTs {41700}” value was 4, the “Fold Increase In mRNA: ESTs {46287}” value was 3 and the “Fold Increase In mRNA: ESTs {48537}” value was 4.5. The “Fold Increase In mRNA: ESTs {51591}” value was 2.3, the “Fold Increase In mRNA: ESTs {52371}” value was 2.6 and the “Fold Increase In mRNA: ESTs {128055}” value was 2.8. For the same compound, the “Fold Increase In mRNA: ESTs {128990}” value was 5, the “Fold Increase In mRNA: ESTs {131591}” value was 2.3 and the “Fold Increase In mRNA: ESTs {135326}” value was 3.4. For the same compound, the “Fold Increase In mRNA: ESTs {141115}” value was 2.3, the “Fold Increase In mRNA: ESTs {151339}” value was 2.4 and the “Fold Increase In mRNA: ESTs {174787}” value was 2.4. The “Fold Increase In mRNA: ESTs {177150}” value was 3.1, the “Fold Increase In mRNA: ESTs {180082}” value was 2.1 and the “Fold Increase In mRNA: ESTs {195079}” value was 4.3. For the same compound, the “Fold Increase In mRNA: ESTs {221118}” value was 4.4, the “Fold Increase In mRNA: ESTs {230447}” value was 2.4 and the “Fold Increase In mRNA: ESTs {242643}” value was 4.1. The “Fold Increase In mRNA: ESTs {249347}” value was 3.5, the “Fold Increase In mRNA: ESTs {264293}” value was 3 and the “Fold Increase In mRNA: ESTs {297463}” value was 2.3. For the same compound, the “Fold Increase In mRNA: ESTs {301487}” value was 3.8, the “Fold Increase In mRNA: ESTs {344156}” value was 5.9 and the “Fold Increase In mRNA: ESTs {364477}” value was 2.5. For the same compound, the “Fold Increase In mRNA: ESTs {364618}” value was 2.7, the “Fold Increase In mRNA: ESTs {375900}” value was 3.1 and the “Fold Increase In mRNA: ESTs {415795}” value was 2.8. For the same compound, the “Fold Increase In mRNA: ESTs {429349}” value was 3, the “Fold Increase In mRNA: ESTs {469725}” value was 3.7 and the “Fold Increase In mRNA: ESTs {471083}” value was 2.6. For the same compound, the “Fold Increase In mRNA: ESTs {488092}” value was 2.5, the “Fold Increase In mRNA: EXT1 = putative tumor suppressor/hereditary mult. exostoses candidate gene” value was 2.4 and the “Fold Increase In mRNA: Eukaryotic initiation factor 1A” value was 2.4. For the same compound, the “Fold Increase In mRNA: Fibronectin (S00848, transformation-associated human fragment)” value was 2.8, the “Fold Increase In mRNA: Gelsolin precursor” value was 2.8 and the “Fold Increase In mRNA: Guanine nucleotide exchange factor MSS4 (U74324) (−76 nucleotide)” value was 2.7. The “Fold Increase In mRNA: HEK2 protein tyrosine kinase receptor” value was 2.6, the “Fold Increase In mRNA: High mobility group protein HMG1 (X12597)” value was 2.6 and the “Fold Increase In mRNA: Histone H2AZ” value was 2.5. For the same compound, the “Fold Increase In mRNA: Immunoglobulin rearranged H-chain V-region (C-D-J Hg)” value was 3.6, the “Fold Increase In mRNA: KIAA0018 gene (D13643)” value was 3.3 and the “Fold Increase In mRNA: Kinesin-related protein” value was 4.8. The “Fold Increase In mRNA: L-lactate dehydrogenase M chain (X02152, M17516)” value was 3, the “Fold Increase In mRNA: Monoamine oxidase” value was 5.5 and the “Fold Increase In mRNA: Myeloblast KIAA0130 gene (D50920)” value was 3.3. For the same compound, the “Fold Increase In mRNA: Neprilysin” value was 2.8, the “Fold Increase In mRNA: Phospholipase A2 (M22430)” value was 2.7 and the “Fold Increase In mRNA: Pyruvate kinase (M26252) = human TCB gene encoding cytosolic thyroid hormone-binding protein” value was 2.3. The “Fold Increase In mRNA: Ras-like GTP-binding protein RAN” value was 2.6, the “Fold Increase In mRNA: S-adenosylmethionine decarboxylase” value was 2.3 and the “Fold Increase In mRNA: S-adenosylmethionine decarboxylase proenzyme (M21154)” value was 2.5. For the same compound, the “Fold Increase In mRNA: STS (WI 12919)” value was 7.7, the “Fold Increase In mRNA: STS (WI-8530)” value was 5 and the “Fold Increase In mRNA: Simian T-cell lymphotropic virus type I DNA for tax/rex region” value was 2.3. For the same compound, the “Fold Increase In mRNA: Spectrin alpha chain” value was 3.5, the “Fold Increase In mRNA: Thyroid receptor interactor (TRIP7) (L40357) (−92 nucleotide)” value was 2.4 and the “Fold Increase In mRNA: Tubulin beta 1 chain” value was 2.8. For the same compound, the “Fold Increase In mRNA: UDP glucuronosyltransferase precursor (UGT2B15)” value was 2.8, the “Fold Increase In mRNA: UDP-glucuronosyltransferase 2B7 precursor” value was 3.9 and the “Fold Increase In mRNA: Vacuolar ATP synthase subunit AC39; or bovine (P17694) NADH-ubiquinone oxidoreductase 49 kD subunit” value was 3.1. The “Fold Increase In mRNA: Yeast guanine nucleotide-binding protein beta subunit-like protein” value was 2.4 and the “Fold Increase In mRNA: p0071 protein (X81889)” value was 2.4.
